These results are taken from US20220127297A1, “Novel Antibacterial 3"-Derivatives Of 4,6-Disubstituted 2,5-Dideoxystreptamine Aminoglycoside Antibiotics” (AGILeBiotics B.V., priority 2018, published 2022).

Each structure is given as a SMILES string. In brackets after ≈: the same amount, converted by molar mass. Where two headings read alike, the source gives them in different places.

The test system of experiment [1] is A. baumannii DSM 105126. Kind of experiment: MIC 50, broth micro-dilution, DSM strains. Format: cell-based, Acinetobacter baumannii. The source says: (§1) 3.2 Against Selected Bacteria of the ESKAPE Panel and Enterococcus faecalis (DSM Strains)
(§2) Tested reference compounds. Amikacin sulfate (Cat. No. 01693, Chem-Impex), Gentamicin sulfate (Cat. No. G4918, Sigma Aldrich).
(§3) Microbial strains. Enterococcus faecalis DSM 2570, Klebsiella pneumoniae DSM 26371, Acinetobacter baumannii DSM 105126, Enterobacter cloacae 3MRGN (clinical bronchial aspirate isolate).
(§4) Culture media and equipment. BBL™ Mueller Hinton Broth 2 (Lot. BCBW1143, Cat. No. 70192, Sigma); Trypcase Soy Blood-agar plates (Cat. No. 43001, Biomérieux); Cryoinstant (contains 15% glycerol; Cat. No. 822070ZA, VWR International); GasPak™ EZ Standard Incubation Container (Cat. No. 260671, Becton Dickinson); GasPak™ EZ Campy Container System Sachets (Cat. No. 260680, Becton Dickinson); 96-well deep well plate, 1 mL (Cat. No. 0030506.200, Eppendorf); Plate lid (Cat. No. 0030131.525, Eppendorf); 96-well plate, F-bottom (Cat. No. 260860, Nunc); Incubator (Sartorius Certomat BS-1); Laminar flow (Heraeus HS12); UV/VIS meter (Perkin Elmer Lambda Bio+); Platereader (Tecan Infinite M200 Pro).
(§5) Compound preparation. Compounds were prepared in MH2 media at a concentration of 5 mM and stored at 4° C. For testing, solutions of 128 μM were prepared in MH2, for tests against E. faecalis a solution of 512 μM was prepared. Out of these working solutions, 400 μL was transferred to wells in the first column of 96-well deep well plates. Each compound was transferred in triplicate. Plates were previously filled with 200 μL of MH2 media in all wells except for the wells in the first column. After compound and antibiotic addition, the compounds were serial two-fold diluted by transferring 200 μL from the first to the second column, then from the second to the third column and so on. Finally, 200 μL was removed from the last column.
(§6) Inoculum preparation. Microorganisms used were all revived from 15% glycerol storage in Croinstant tubes at −28° C. by plating them on blood agar plates. A. baumanni, and E. cloacae were grown aerobically at 37° C., E. faecalis was grown microaerophilically at 37° C., and K. pneumoniae was grown aerobically at 37° C. Plates were stored at 4° C. for up to two weeks, after which new plates were prepared from −28° C. A single colony was inoculated in MH2 media and grown at 37° C. and 200 rpm to an optical density (measured by UV/Vis spectroscopy) of 0.6-0.8 at 600 nm. Out of these suspensions, actual inoculums were prepared by diluting them to an optical density of 0.1 in MH2 media. From these inoculums, 200 μL was transferred to each well, resulting in a final compound concentration range of 64 μM-31.3 nM for, K. pneumoniae, A. baumanni, and E. cloacae, and 256 μM-125 nM for E. faecalis. Plates inoculated with E. faecalis were placed inside a GasPak™ Container System with GasPak™ Campy Container System sachets. All plates were incubated at 200 rpm for 18 h under the microorganism culturing conditions mentioned above.
(§7) MIC determination. After 18 h of growth, 200 μL was transferred to a 96-well F-bottom plate. The optical density was determined by a plate reader at 600 nm, with 10 s shaking before reading. Triplicate measurements were averaged, and a growth curve was plotted in Excel. The first column in which the growth reached half the value of maximum growth was determined as the MIC50 value for that particular compound.
(§8) MIC50. The MIC50 of a compound was assigned at which the bacterial growth reached half the value of maximum growth.

In experiment [2] the test system is K. pneumoniae DSM 26371. Kind of experiment: MIC 50, broth micro-dilution, DSM strains. Type of experiment: cell-based, Klebsiella pneumoniae.
Excerpt: as §1, §2, §3, §4, §5, §6, §7, §8

[3] abbreviates: Acinetobacter baumannii, DSM105126, read-out: MIC 50.
[4] abbreviates: Klebsiella pneumoniae, DSM26371, K. pneumoniae DSM 26371, read-out: MIC 50.

With `N=C(NCc1cnc[nH]1)NC1[C@@H](O)C(OC2[C@@H](F)[C@H](O[C@H]3OC(CN)[C@@H](O)CC3N)C(N)C[C@H]2NC(=O)[C@@H](O)CCN)O[C@H](CO)[C@H]1O` (stereo partly drawn) [ABX5050, Tobra-AHB-F-Gua imidazol-5-yl methyl], the MIC50 in experiment [1] (setting [3]) and in experiment [2] (setting [4]) was 0.5 µM (≈ 0.346 µg/mL) each time.

Take `NCCC(O)C(=O)NC1CC(N)C(OC2OC(CN)C(O)C(O)C2O)C(F)C1OC1OC(CO)C(O)C(N)C1O` (stereo not drawn) [ABX3005, 3′Epi-KanaA-AHB-F]: the “MIC50” value in experiment [1] and in experiment [2] (K. pneumoniae DSM 26371) was 1 µM (≈ 0.588 µg/mL) in each case.

For `N=C(N)NC1[C@@H](O)C(OC2[C@@H](F)[C@H](O[C@H]3OC(CN)[C@@H](O)[C@H](O)C3N)C(N)C[C@H]2NC(=O)[C@@H](O)CCN)O[C@H](CO)[C@H]1O` (stereo partly drawn) [ABX4004, 3′epi-KanaB-AHB-F-Gua], the results for the “MIC50” value in experiment [1] and in experiment [2] (K. pneumoniae DSM 26371) were 0.125 µM (≈ 0.0786 µg/mL) and 0.25 µM (≈ 0.157 µg/mL), respectively.

In the case of `NCCC(O)C(=O)NC1CC(N)C(OC2OC(CN)C(O)C(O)C2N)C(O)C1OC1OC(CO)C(O)C(N)C1O` (stereo not drawn) [ABX4001, KanaB-AHB], the “MIC50” value in experiment [1] and in experiment [2] (K. pneumoniae DSM 26371) was 0.5 µM (≈ 0.292 µg/mL) in each case.

As for `N=C(N)NC1C(O)[C@@H](CO)OC(OC2C(F)[C@H](O[C@H]3OC(CN)[C@@H](O)CC3N)C(N)C[C@H]2NC(=O)[C@@H](O)CCN)[C@@H]1O` (stereo partly drawn) [ABX5006, Tobra-AHB-F-Gua], the MIC50 in experiment [1] (setting [3]) was 0.0625 µM (≈ 0.0383 µg/mL); in experiment [2] (setting [4]), less than 0.25 µM.

`N=C(NCC1CCOC1)NC1[C@@H](O)C(OC2[C@@H](F)[C@H](O[C@H]3OC(CN)[C@@H](O)CC3N)C(N)C[C@H]2NC(=O)[C@@H](O)CCN)O[C@H](CO)[C@H]1O` (stereo partly drawn) [ABX5051, Tobra-AHB-F-Gua tetrahydrofuran-3-yl methyl]: the MIC50 in experiment [1] (setting [3]) and in experiment [2] (setting [4]) was 0.5 µM (≈ 0.348 µg/mL) each time.

With `NCC[C@H](O)C(=O)N[C@@H]1CC(N)[C@@H](O[C@H]2OC(CN)[C@@H](O)[C@@H](O)C2N)[C@H](F)C1OC1O[C@H](CO)[C@@H](O)C(N)[C@H]1O` (stereo partly drawn) [ABX4003, 3′Epi-KanaB-AHB-F], the “MIC50” value in experiment [1] and in experiment [2] (K. pneumoniae DSM 26371) was 0.5 µM (≈ 0.293 µg/mL) throughout.

In the case of `N=C(NCC1CC1)NC1[C@@H](O)C(OC2[C@@H](F)[C@H](O[C@H]3OC(CN)[C@@H](O)CC3N)C(N)C[C@H]2NC(=O)[C@@H](O)CCN)O[C@H](CO)[C@H]1O` (stereo partly drawn) [ABX5027, Tobra-AHB-F-Gua cyclopropylmethyl], the MIC50 in experiment [1] (setting [3]) and in experiment [2] (setting [4]) was 0.125 µM (≈ 0.0833 µg/mL) throughout.

Turning to `N=C(NC[C@@H]1CCNC1)NC1[C@@H](O)C(OC2[C@@H](F)[C@H](O[C@H]3OC(CN)[C@@H](O)CC3N)C(N)C[C@H]2NC(=O)[C@@H](O)CCN)O[C@H](CO)[C@H]1O` (stereo partly drawn) [ABX5039, Tobra-AHB-F-Gua (R) pyrrolidine-3-ylmethyl], the MIC50 in experiment [1] (setting [3]) is 0.0625 µM (≈ 0.0435 µg/mL); in experiment [2] (setting [4]), 0.5 µM (≈ 0.348 µg/mL).

For `CNCCNC(=N)NC1[C@@H](O)C(OC2[C@@H](F)[C@H](O[C@H]3OC(CN)[C@@H](O)CC3N)C(N)C[C@H]2NC(=O)[C@@H](O)CCN)O[C@H](CO)[C@H]1O` (stereo partly drawn) [ABX5038, Tobra-AHB-F-Gua 2-(methylamino)ethyl], the MIC50 was 0.0625 to 0.125 µM (≈ 0.0419 to 0.0837 µg/mL) in experiment [1] (setting [3]) and 0.5 µM (≈ 0.335 µg/mL) in experiment [2] (setting [4]).

As for `N=C(NCc1ccncc1)NC1[C@@H](O)C(OC2[C@@H](F)[C@H](O[C@H]3OC(CN)[C@@H](O)CC3N)C(N)C[C@H]2NC(=O)[C@@H](O)CCN)O[C@H](CO)[C@H]1O` (stereo partly drawn) [ABX5048, Tobra-AHB-F-Gua pyridin-4-yl methyl], the MIC50 in experiment [1] (setting [3]) and in experiment [2] (setting [4]) was 0.5 µM (≈ 0.352 µg/mL) throughout.

As for `N=C(N)NC1[C@@H](O)C(OC2[C@@H](O)[C@H](O[C@H]3OC(CN)[C@@H](O)CC3N)C(N)C[C@H]2NC(=O)[C@@H](O)CCN)O[C@H](CO)[C@H]1O` (stereo partly drawn) [ABX5005, Tobra-AHB-Gua], the “MIC50” value in experiment [1] and in experiment [2] (K. pneumoniae DSM 26371) was 0.25 µM (≈ 0.153 µg/mL) in each case.
